The source of these data is publication PMC7238232, “Acamprosate Is a Substrate of the Human Organic Anion Transporter (OAT) 1 without OAT3 Inhibitory Properties: Implications for Renal Acamprosate Secretion and Drug–Drug Interactions” (Pharmaceutics, 2020).

Where only a bound is given, the exact number is not on record here.

One series deals with T1, OAT3 (Homo sapiens, UniProt Q8TCC7).
T1 sequence (Q8TCC7 1-542): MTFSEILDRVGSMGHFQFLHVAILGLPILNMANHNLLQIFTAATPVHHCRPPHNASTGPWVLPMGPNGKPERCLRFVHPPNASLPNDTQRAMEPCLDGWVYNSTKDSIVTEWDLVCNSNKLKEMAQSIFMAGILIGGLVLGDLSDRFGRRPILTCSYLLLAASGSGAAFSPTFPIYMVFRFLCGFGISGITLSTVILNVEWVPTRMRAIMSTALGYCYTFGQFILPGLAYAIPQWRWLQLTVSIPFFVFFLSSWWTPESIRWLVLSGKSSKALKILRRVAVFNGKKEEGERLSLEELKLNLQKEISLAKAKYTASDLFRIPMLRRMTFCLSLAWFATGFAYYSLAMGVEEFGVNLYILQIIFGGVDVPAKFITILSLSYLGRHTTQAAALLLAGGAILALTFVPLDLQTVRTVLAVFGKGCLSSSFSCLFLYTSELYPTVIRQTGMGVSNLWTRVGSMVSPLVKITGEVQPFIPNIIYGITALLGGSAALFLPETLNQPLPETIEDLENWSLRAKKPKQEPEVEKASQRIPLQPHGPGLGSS
Description: Drug-drug interaction (DDI) index calculation, OAT3. The conditions noted are these: oral and intravenous administration of inhibitor. An excerpt:
Input values for Cmax,u or C0,u calculated from clinical studies are listed in Appendix B, Table A1.

The next series deals with T2, OAT1 (Homo sapiens, UniProt Q4U2R8).
T2 sequence (Q4U2R8 1-563): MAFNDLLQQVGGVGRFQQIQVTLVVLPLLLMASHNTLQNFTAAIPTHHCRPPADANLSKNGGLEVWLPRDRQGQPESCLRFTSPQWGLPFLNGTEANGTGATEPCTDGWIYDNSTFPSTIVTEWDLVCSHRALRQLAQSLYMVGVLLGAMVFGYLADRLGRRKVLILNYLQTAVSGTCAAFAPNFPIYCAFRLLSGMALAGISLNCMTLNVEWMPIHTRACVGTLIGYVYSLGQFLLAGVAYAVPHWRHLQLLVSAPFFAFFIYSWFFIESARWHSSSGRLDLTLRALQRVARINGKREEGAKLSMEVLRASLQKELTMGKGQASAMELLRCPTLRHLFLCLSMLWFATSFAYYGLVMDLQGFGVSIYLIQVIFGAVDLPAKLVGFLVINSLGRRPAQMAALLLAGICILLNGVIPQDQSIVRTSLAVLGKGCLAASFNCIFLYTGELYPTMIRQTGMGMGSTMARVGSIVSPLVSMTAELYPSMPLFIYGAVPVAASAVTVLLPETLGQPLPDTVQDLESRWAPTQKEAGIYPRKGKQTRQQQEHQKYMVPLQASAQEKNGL
Description: [14C]-PAH uptake and its inhibition in HEK293-Flp-In OAT1 cells. How it is done: All uptake experiments were performed on 24- or 96-well plates. Before the experiment initiation, the cells were incubated with either 500 or 200 µL∙well^−1 prewarmed buffer for 10 min at 37 °C in a microplate incubator (VWR International AB, Stockholm, Sweden), without shaking. […] The experiment was stopped by adding 200 µL∙well^−1 of ice-cold buffer and subsequent rinse three times with the same amount of buffer. In Lab. 1 the sample analysis of the OAT1/OAT3/mock studies consisted in removing the rinsing buffer and lysing the cells with 70 µL 1M NaOH, following by incubation for 60 min at 37 °C and 100 rpm. A total of 50 µL of cell lysate from each well was transferred to 96-well Luma plates bottom coated with dry scintillant. Then, 2∙20 µL of each donor and three 50 µL blank samples were applied on the same plate. The dry plates were covered with transparent seals and analyzed using a TopCount NXT Microplate Scintillation and Luminescence Counter (Perkin Elmer, Waltham, MA, USA). The remaining 20 µL cell lysate was neutralized with 20 µL 1M HCl∙well^−1, samples were mixed thoroughly and the total protein content in all the wells was measured using a BCA protein assay kit, microplate method, and a Tecan Safire II fluorometer (Tecan Austria GmbH, Grödig, Austria). For the experiments in Lab. 2, the cells were lysed by adding 200 µL 0.1% Triton X-100 and incubated for 5 min at 37 °C and 100 rpm. […] The total protein content was measured by using a BCA protein assay kit and a FLUOStar Omega fluorescence microplate reader (BMG Labtech, Ortenberg, Germany). The protein assay for the OAT3 and mock cell lines was performed in four independent wells of each cell line, seeded and treated in the same manner as the cells used in the uptake assay. For all the OAT1, OAT3, and mock isotope uptake studies, the radiolabelled tracer accumulation (pmol) in each well was calculated by first determining the activity of the isotope (DPM∙pmol^−1) from the radioactivity (DPM) of the donor sample divided by the theoretical isotope concentration (pmol), then dividing the total radioactivity in the well (DPM) to the specific activity of the isotope (DPM∙pmol^−1).
A range of preincubation solutions was prepared at the same concentrations of acamprosate applied in the inhibition assays. Acamprosate was dissolved in HBSS buffered with 10 mM HEPES and the pH was adjusted to 7.40 ± 0.01. The preincubation solutions were prewarmed to 37 °C and applied to the corresponding cells after removing the cell growth medium. The preincubation was done for 3 h, at 37 °C, without shaking. After the preincubation, the solutions were removed, and the inhibition experiment was performed as described in the Section 2.6.
The obtained intracellular amounts (pmol) were normalized to the assay time (min) and cell surface area (cm^2) or protein amount (mg protein) to obtain a term hereafter referred to as uptake rate. The uptake rate of acamprosate as a function of concentration was fitted to a Michaelis–Menten type equation which includes a saturable and a non-saturable uptake component, (1) V=Vmax · [S]/Km +[S]+P · [S] where V is the substrate uptake rate; Vmax is the maximal uptake rate; P is a constant related to non-saturable apparent uptake, i.e., factors such as passive diffusion, unspecific binding and residual compound present after washing steps, and [S] is the substrate concentration (µM). […] Assuming competitive interaction, equilibrium dissociation constants, Ki, were calculated from the IC50 value for each substrate/inhibitor pair, at substrate Km, using the Cheng–Prusoff equation [24].

As to `CC(=O)NCCCS(=O)(=O)O` [acamprosate, acetylhomotaurinate], at OAT3, the “DDI index, substrate E3S” value is listed as <<0.02 ^a, b. Also, at OAT1 (9.5 µM [14C]-PAH, 200 µM PAH, 300 µM probenecid, 1000 and 10,000 µM acamprosate, Lab. 1), the “effect on uptake of [14C]-PAH in OAT1 expressing cells” value is reported as “significantly decreased”. For the same molecule, the IC50 is 582 µM at OAT1 (IC50, 3 h, inhibition of PAH uptake via OAT1, 9.5 µM [14C]-PAH, after 3 h preincubation with inhibitor, Lab. 2); 638 µM against OAT1 (IC50, inhibition of PAH uptake via OAT1, 9.5 µM [14C]-PAH, 3 min, applied concomitantly, Lab. 2); 1390 µM against OAT1 (IC50, inhibition of PAH uptake via OAT1, 9.5 µM [14C]-PAH, 5 min, Lab. 1); 287 to 1230 µM on OAT1 (human, hek293-flp-in oat1 cells, IC50, p-Aminohippuric Acid (PAH), input for DDI index, Table A1, for acamprosate interval of obtained values); 631 µM at OAT1 (log IC50 ± log S.E.M., 3 h, inhibition of PAH uptake via OAT1, after 3 h preincubation, Lab. 2, log of IC50 in µM); 1260 µM against OAT1 (log IC50 ± log S.E.M., inhibition of PAH uptake via OAT1, 9.5 µM [14C]-PAH, 5 min, Lab. 1, log of IC50 in µM). Further, at OAT1 (log IC50 ± log S.E.M., inhibition of PAH uptake via OAT1, 3 min, applied concomitantly, Lab. 2, log of IC50 in µM), half-maximal inhibition (IC50) required 631 µM. In addition, the inhibition constant Ki at OAT1 (Ki of acamprosate on PAH uptake, fit to competitive kinetics (Equation 4), Lab. 2) is 1230 ± 341 µM; at OAT1 (Ki, inhibition of PAH uptake via OAT1, 3 h, Cheng-Prusoff, after 3 h preincubation, Lab. 2) it was 287 µM; on OAT1 (Ki, inhibition of PAH uptake via OAT1, Cheng-Prusoff from IC50, competitive inhibition assumed, Lab. 1) it was 1140 µM; on OAT1 (Ki, inhibition of PAH uptake via OAT1, Cheng-Prusoff, applied concomitantly, Lab. 2), 315 µM; on OAT1 (OAT1 inhibiting Ki-value), 638 µM; at OAT1 (human, Ki values, inhibition of OAT1-mediated transport of PAH, range over the two laboratories), 582 to 1230 µM. Besides, the “effect of 3 h preincubation on inhibition of [14C]-PAH uptake” value at OAT1 (OAT1 expressing cells, 0–10,000 µM acamprosate, 200 µM PAH, 300 µM probenecid, Lab. 2) is on record as “no apparent effect”. Moreover, at OAT1 (PAH uptake with 0, 625, 1250 or 2500 µM acamprosate, Lab. 2), the “mechanism of inhibition of OAT1-mediated PAH transport” value was “competitive”.

As usually defined, the IC50 is the midpoint of a concentration-inhibition curve. Broadly, the Ki is a measure of affinity in units of concentration, obtained from inhibition or displacement. The low end stands for a stronger hold on the target, the high end for a looser hold on the target.
